In patent US10426774B2, “Methods of treating cancer having an active Wnt/β-catenin pathway” (DANA-FARBER CANCER INSTITUTE, INC., priority 2012, dated 2019):

Tests used:
zebrafish embryos = assay: Zebrafish embryo gut formation (IFABP expression / gut reporter); assay type: in vivo; details: morpholino microinjection 50 μM; gut reporter fluorescence 4 dpf, IFABP in situ hybridization 3 dpf
Method: FIG. 5: YES1 is essential for tumorgenicity of β-catenin-active cells. (A) V5 immune complexes were isolated from HuTu80 or SW480 cells stably expressing WT or Y357F V5-epitope-tagged YAP1 or control V5-LacZ Immune complexes were analyzed by immunoblotting with a phosphotyrosine antibody. (B) HuTu80 or SW480 cells stably expressing V5-epitope-tagged WT YAP1 were treated for 6 hr with 0.5 or 2 μM of dasatinib. V5 immune complexes were analyzed by immunoblotting with a phosphotyrosine antibody. (C) Transgenic IFABP:RFP zebrafish were injected with 50 μM of YAP1- or YES1-specific morpholinos. Red fluorescence was assessed 4 dpf, or IFABP expression was assessed 3 dpf by using whole-mount in situ hybridization with an IFABP-specific probe. (D) Embryos were exposed to 2 μM of dasatinib at 2 dpf, and IFABP expression was assessed after 24 hr by using whole-mount in situ hybridization.
Zebrafish were maintained according to institutional animal care and use committee (IACUC-BIDMC) protocols. Validated morpholinos (MO) (Gene-Tools, PhiloMath, Oreg.) designed against the ATG site of YES1 (5′-CC […]-3′, SEQ ID NO: 1) (Jopling and Hertog, 2007) or YAP1 (5′-[…]-3′, SEQ ID NO: 2) (Skouloudaki et al., 2009) were injected into WT or gut reporter (Tg(fabp2:RFP)as200) zebrafish at the one-cell stage. […]

HCT116 = assay: Small-molecule inhibitor proliferation assay (crystal violet), HCT116; assay type: cell-based; details: Homo sapiens, HCT-116, 168 h, β-catenin pathway active, proliferation 7 d post treatment, read-out: IC50 Dasatinib
Method: (§1) (A) The indicated cancer cell lines were treated with various concentrations of dasatinib and proliferation was measured 7 days post treatment. (B) HCT116 or (C) HuTu80 cells stably expressing a dastinib resistant YES1 (T348I) or SRC (T341I) were treated as in (A). (D) Representative picture of HCT116 cells treated as in (B).
(§2) 6000 cell/well were plated in 24-well plates and the indicated doses of dasatinib (Selleck, Houston) or vehicle was added 24 hr later. Proliferation was measured after 7 d by crystal violet staining.

RKO = assay: Small-molecule inhibitor proliferation assay (crystal violet), RKO; assay type: cell-based; details: Homo sapiens, 168 h, β-catenin pathway Non-active, proliferation 7 d post treatment, read-out: IC50 Dasatinib
Method: as §1, §2

KM12 = assay: Small-molecule inhibitor proliferation assay (crystal violet), KM12; assay type: cell-based; details: Homo sapiens, 168 h, β-catenin pathway Non-active, proliferation 7 d post treatment, read-out: IC50 Dasatinib
Method: as §1, §2

Colo205 = assay: Small-molecule inhibitor proliferation assay (crystal violet), Colo205; assay type: cell-based; details: Homo sapiens, COLO 205, 168 h, β-catenin pathway active, proliferation 7 d post treatment, read-out: IC50 Dasatinib
Method: as §1, §2

SW480 = assay: Small-molecule inhibitor proliferation assay (crystal violet), SW480; assay type: cell-based; details: Homo sapiens, 168 h, β-catenin pathway active, proliferation 7 d post treatment, read-out: IC50 Dasatinib
Method: as §1, §2

DLD1 = assay: Small-molecule inhibitor proliferation assay (crystal violet), DLD1; assay type: cell-based; details: Homo sapiens, DLD-1, 168 h, β-catenin pathway active, proliferation 7 d post treatment, read-out: IC50 Dasatinib
Method: as §1, §2

WT organoids = assay: Three-dimensional primary colon organoid culture, WT; assay type: cell-based, mouse; details: WT organoids treated with dasatinib
Method: (§3) (A) Representative images of colon organoids derived from WT or APC null mice treated for 6 days with 100 nM of dasatinib. (B) Quantification of results in (A). Error bars represent SD from four replicates. Blank denotes wells where no organoids were added. (C) WT or AXIN1 mutant (Masterblind) zebrafish were treated with 2 μM of dasatinib from 6-8 dpf. Arrow indicates developing gut. (D) H&E staining of zebrafish in (C) width of epithelium is noted by bars. (E) The number of epithelial cells/section was measured in WT or AXIN1 mutant zebrafish treated with 2 μM of dasatinib or DMSO. Error bars represent the SD from 20 different sections from five treated fish. p value was calculated by using Student's t test.
(§4) Colons from Apc flox/flox; villin-CreER mice were dissected lengthwise and washed in cold PBS. 0.5-1 cm segment per dish was minced extensively on ice and embedded in a 3D collagen gel by using a double-dish culture system (Ootani et al., 2009). Tamoxifen (Sigma, 2 μM in ethanol) or vehicle (ethanol) was applied on the day of initial plating for 7 days to generate APC null or WT organoids.

HuTu80 = assay: Small-molecule inhibitor proliferation assay (crystal violet), HuTu80; assay type: cell-based; details: Homo sapiens, 168 h, β-catenin pathway active, proliferation 7 d post treatment, read-out: IC50 Dasatinib
Method: as §1, §2

HT55 = assay: Small-molecule inhibitor proliferation assay (crystal violet), HT55; assay type: cell-based; details: Homo sapiens, 168 h, β-catenin pathway active, proliferation 7 d post treatment, read-out: IC50 Dasatinib
Method: as §1, §2

APC null organoids = assay: Three-dimensional primary colon organoid culture, APC null; assay type: cell-based, mouse; details: 50 nM
Method: as §3, with “(A) Representative images of colon organoids derived from WT or APC null mice treated for 6 days with 100 nM of dasatinib.” left out
as §4

For “5′-AGCAACATTAACAACTCACTTTAGG-3′ (morpholino backbone, further chemistry not given here) [YAP1 morpholino]”, which gut formation (zebrafish embryos) is on record?
The gut formation was “dramatically inhibited”.

How did the gut formation (zebrafish embryos) turn out when “5′-CC TCTTTACTCTTGACACAGCCCAT-3′ (CCTCTTTACTCTTGACACAGCCCAT; morpholino backbone, further chemistry not given here) [YES1 morpholino]” was run?
The gut formation was “dramatically inhibited”.

For Cc1nc(Nc2ncc(C(=O)Nc3c(C)cccc3Cl)s2)cc(N2CCN(CCO)CC2)n1 [dasatinib], which IC50 (HCT116) is on record?
The IC50 was 0.068 µM.

And the IC50 (RKO)?
Its IC50 is > 0.8 µM.

What about the IC50 (KM12) of the same compound?
Its IC50 is > 0.8 µM.

And the IC50 (Colo205)?
The IC50 was 0.08 µM.

And the IC50 (SW480)?
The IC50 was 0.05 µM.

And the IC50 (DLD1)?
Its IC50 is 0.125 µM.

And the “growth inhibition of WT organoids” value (WT organoids)?
Its value is 5%.

And the IC50 (HuTu80)?
Its IC50 is 0.07 µM.

What about the IC50 (HT55) of the same compound?
The IC50 was 0.07 µM.

And the “decrease in growth of APC null organoids” value (APC null organoids)?
Its value is 70%.
